The structures appear in SMILES notation. A value given as a limit tells only on which side of the number the result lay.

Results on 32 compounds are retold here after patent publication US20260234163A1, “NOVEL COMPOUNDS AND USES THEREOF” (ACELINK THERAPEUTICS, INC., priority 2023, published 2026).

The target of this assay is T1, Keap1-Nrf2 (Homo sapiens, UniProt Q14145).
T1 construct: purchased Sino Biological 11981-H20B
Briefly: Keap1-Nrf2 Binding Inhibitory Activity Assay (fluorescence polarization, Keap1_FL + FITC-Nrf2 peptide). The following applies: Keap1-FL, 60 min room temperature. Here is the method:
Example 2.1 Keap1-Nrf2 Binding Inhibitory Activity Assay
• PerkinElmer EnVision 2105 Multilabel Reader • PerkinElmer FITC FP dual emission Label 2100-8060 • LABCYTE Echo 650 • Corning 384-well microplate #4514 • Keap1_FL, Sino Biological, catalog 11981-H20B • FITC-Nrf2 peptide, GL Biochem, Lot No: p210427-XQ892761
• a) Reference titration • 1. Keap1-Nrf2 Assay Buffer was prepared: 10 mM Tris-HCl pH 7.4, 150 mM NaCl, 50 mM EDTA, 0.05% Tween20, 0.1 mg/ml BSA (freshly add before use). • 2. 2.04× Tracer working solution was prepared: 2.04 nM FITC-Nrf2 peptide in Assay Buffer from 1 μM DMSO stock. • 3. 2× Protein working solution was prepared: 25 nM Keap1-FL in Assay Buffer. • 4. 100× compound working solutions with DMSO were prepared. Starting from 100 μM, serial 3-fold dilutions (10 points) were made by the Echo on the 384-well LDV microplate, then 200 nL of compounds, in duplicated wells, were transferred to a Corning 4514 plate. • 5. 9.8 μL per well of the Tracer working solution was added into the Corning 4514 plate. • 6. 10 μL per well of the Protein working solution was added into the Corning 4514 plate, except for the first two columns where Dilution Buffer were added to serve as “positive control”. • 7. The plate was incubated at room temperature for 60 min. • b) Read data on an EnVision with the following setting: Excitation Light (%): 84; Measurement Height: 9.4; G-Factor: 1; Detector Gain 1:220; Detector Gain 2: 220; Flash Number: 50.
All the Test Compounds were considered as having Keap1-Nrf2 binding inhibitory activity.

In the case of `Cc1c2ccc3c1nnn3CCCCCC1CCN(CC1)C(=O)N1CCc3ccc(cc3C1)C2CC(=O)O` (single isomer, unassigned) [Compound 28], the IC50 is at most 100 nM. Consider `Cc1c2ccc3c1nnn3CCCCCC1CCN(CC1)C(=O)N(C)CCc1ccc(cc1)C2CC(=O)O` (centres unmarked) [Compound 44, 2-(14,6-dimethyl-7-oxo-11H-6-aza-1(5,1)-benzo[d][1,2,3]triazola-8(1,4)-piperidina-3(1,4)-benzenacyclotridecaphane-2-yl)acetic acid], for which the IC50 lay within 1000 to 10000 nM. Under `Cc1c2ccc3c1nnn3CCCCC(=O)N1CCc3ccc(cc3C1)C2CC(=O)O` (centres unmarked) [Compound 46] stands 100 to 1000 nM; under `Cc1c2ccc3c1nnn3CCCCCC1CCC(CC1)C(=O)N1CCc3ccc(cc3C1)C2CC(=O)O` (single isomer, unassigned) [Compound 49], at most 100 nM; under `Cc1c2ccc3c1nnn3CCOCCOC1CCN(CC1)S(=O)(=O)N1CCc3ccc(cc3C1)C2CC(=O)O` (centres unmarked) [Compound 15, 2-(1^4-methyl-4,4-dioxido-3^1,3^2,3^3,3^4-tetrahydro-1^1H-6,9-dioxa-4-thia-3(7,2)-isoquinolina-1(5,1)-benzo[d][1,2,3]triazola-5(1,4)-piperidinacycloundecaphane-2-yl)acetic acid], at most 100 nM.

As to `Cc1c2ccc3c1nnn3CCCCCC1CCC(CC1)C(=O)N1CCc3ccc(cc3C1)C2CC(=O)O` (single isomer, unassigned) [Compound 50], the IC50 is at most 100 nM. As for `Cc1c2ccc3c1nnn3CCCOCc1ccc(cc1)C(=O)N(C)Cc1cccc(n1)C2CC(=O)O` (single isomer, unassigned) [Compound 24], the figure is 100 to 1000 nM; as for `Cc1c2ccc3c1nnn3CCCCCCCCCC(=O)N1CCc3ccc(cc3C1)C2CC(=O)O` (centres unmarked) [Compound 41], at most 100 nM. As for `Cc1c2ccc3c1nnn3CCCCC1CCC(CC1)C(=O)N(C)Cc1cccc(c1)C2CC(=O)O` (centres unmarked) [Compound 36], the figure is 100 to 1000 nM; as for `Cc1c2ccc3c1nnn3CCCCCC1CCN(CC1)C(=O)N1CCc3ccc(cc3C1)C2CC(=O)O` (single isomer, unassigned) [Compound 29], at most 100 nM. As for `Cc1c2ccc3c1nnn3CCCOCc1ccc(cc1)S(=O)(=O)N(C)Cc1cccc(c1)C2CC(=O)O` (centres unmarked) [Compound 22], the figure is 1000 to 10000 nM; as for `Cc1c2ccc3c1nnn3CCOCCOC1CCN(CC1)C(=O)c1ccc3ccc(cc3c1)C2CC(=O)O` (single isomer, unassigned) [Compound 19], 1000 to 10000 nM. On to `Cc1c2ccc3c1nnn3CCCOCc1ccc(cc1)C(=O)N(C)Cc1ccnc(c1)C2CC(=O)O` (centres unmarked) [Compound 21], for which the IC50 lay in the range of 100 to 1000 nM. In the case of `Cc1ccc2cc1CN(C)C(=O)c1ccc(cc1)COCCCn1nnc3c(C)c(ccc31)C2CC(=O)O` (single isomer, unassigned) [Compound 16, 2-(1^4,3^4,5-trimethyl-6-oxo-1^1H-9-oxa-5-aza-1(5,1)-benzo[d][1,2,3]triazola-3(1,3), 7(1,4)-dibenzenacyclododecaphane-2-yl)acetic acid], the IC50 lay within 1000 to 10000 nM. Turning to `Cc1c2ccc3c1nnn3CCCCCCC(=O)N1CCc3ccc(cc3C1)C2CC(=O)O` (centres unmarked) [Compound 42], the IC50 is at most 100 nM. Under `Cc1c2ccc3c1nnn3CCCCCCCCNC(=O)N1CCc3ccc(cc3C1)C2CC(=O)O` (centres unmarked) [Compound 38] stands at most 100 nM. On to `Cc1c2ccc3c1nnn3CCCOCc1ccc(cc1)C(=O)N(C)Cc1cccc(n1)C2CC(=O)O` (single isomer, unassigned) [Compound 25], for which the IC50 is 1000 to 10000 nM. As for `O=C(O)CC1c2ccc3c(c2)CN(CC3)C(=O)N2CCC(CCCCn3nnc4cc1cnc43)CC2` (single isomer, unassigned) [Compound 52], the IC50 was at most 100 nM. Under `Cc1c2ccc3c1nnn3CCCCOc1ccc(cc1)S(=O)(=O)N1CCc3ccc(cc3C1)C2CC(=O)O` (centres unmarked) [Compound 13, 2-(1^4-methyl-4,4-dioxido-3^1,3^2,3^3,3^4-tetrahydro-1^1H-6-oxa-4-thia-3(7,2)-isoquinolina-1(5,1)-benzo[d][1,2,3]triazola-5(1,4)-benzenacyclodecaphane-2-yl)acetic acid] stands at most 100 nM. For `Cc1c2ccc3c1nnn3CCCOCc1ccc(cc1)C(=O)N(C)Cc1cc(ccn1)C2CC(=O)O` (single isomer, unassigned) [Compound 26], the IC50 was in the range of 100 to 1000 nM. Under `O=C(O)CC1c2ccc3c(c2)CN(CC3)C(=O)N2CCC(CCCCn3nnc4cc1cnc43)CC2` (single isomer, unassigned) [Compound 51] stands 100 to 1000 nM. Under `Cc1c2ccc3c1nnn3CCCOCc1ccc(cc1)C(=O)N(C)Cc1cncc(c1)C2CC(=O)O` (single isomer, unassigned) [Compound 23] stands 1000 to 10000 nM; under `Cc1c2ccc3c1nnn3CCCCCC1CCN(CC1)C(=O)N(C)Cc1cccc(c1)C2CC(=O)O` (centres unmarked) [Compound 31], 100 to 1000 nM.

With `Cc1c2ccc3c1nnn3CCCOCc1ccc(cc1)C(=O)N(C)Cc1cncc(c1)C2CC(=O)O` (single isomer, unassigned) [Compound 20], the 50% inhibitory concentration (IC50) lay in the range of 1000 to 10000 nM. Under `Cc1c2ccc3c1nnn3CCOCCOC1CCN(CC1)C(=O)c1ccc3ccc(cc3c1)C2CC(=O)O` (single isomer, unassigned) [Compound 18] stands 1000 to 10000 nM; under `Cc1c2ccc3c1nnn3CCCCCNC(=O)N1CCc3ccc(cc3C1)C2CC(=O)O` (centres unmarked) [Compound 43], 1000 to 10000 nM.

Consider `Cc1c2ccc3c1nnn3CCCCC1CCC(CC1)C(=O)N1CCc3ccc(cc3C1)C2CC(=O)O` (single isomer, unassigned) [Compound 48], for which the IC50 is at most 100 nM. As for `Cc1c2ccc3c1nnn3CCCCC1CCN(CC1)C(=O)N(C)Cc1cccc(c1)C2CC(=O)O` (centres unmarked) [Compound 32], the figure is 1000 to 10000 nM.

On to `Cc1c2ccc3c1nnn3CCCCOC1CCN(CC1)S(=O)(=O)N1CCc3ccc(cc3C1)C2CC(=O)O` (centres unmarked) [Compound 6, 2-(1^4-methyl-4,4-dioxido-3^1,3^2,3^3,3^4-tetrahydro-1^1H-6-oxa-4-thia-3(7,2)-isoquinolina-1(5,1)-benzo[d][1,2,3]triazola-5(1,4)-piperidinacyclodecaphane-2-yl)acetic acid], for which the IC50 was at most 100 nM. Under `Cc1c2ccc3c1nnn3CCCOCc1ccc(cc1)C(=O)N(C)Cc1cc(ccn1)C2CC(=O)O` (single isomer, unassigned) [Compound 27] stands 1000 to 10000 nM; under `Cc1c2ccc3c1nnn3CCCCC1CCC(CC1)C(=O)N1CCc3ccc(cc3C1)C2CC(=O)O` (single isomer, unassigned) [Compound 47], at most 100 nM; under `Cc1c2ccc3c1nnn3CCOCCOC1CCN(CC1)C(=O)c1ccc3c(c1)CN(CC3)C2CC(=O)O` (centres unmarked) [Compound 9, 2-(carboxymethyl)-1^4-methyl-4-oxo-3^1,3^2,3^3,3^4-tetrahydro-1^1H-6,9-dioxa-3(2,7)-isoquinolin-2-iuma-1(5,1)-benzo[d][1,2,3]triazola-5(1,4)-piperidinacycloundecaphan-3^2-ium chloride], 1000 to 10000 nM.
